How the values were obtained:
[1] = Inhibition of pepsin
[2] = Inhibition of Candida albicans ATCC 10231 secreted aspartic protease

Structure (SMILES) | IC50 [1] [µM] | IC50 [2] [µM]
COc1ccc([C@@H]2CC(=O)c3c(O)c(C)c(O[C@@H]4O[C@@H]5COC(=O)c6cc(O)c(O)c(O)c6-c6c(cc(O)c(O)c6O)C(=O)O[C@H]5[C@H](O)[C@H]4O)c(C)c3O2)cc1 | 66.6 | 8.4
O=c1oc2c(O)c(O)cc3c(=O)oc4c(O)c(O)cc1c4c23 [ELLAGIC ACID] | 37.1 | 10.5
CC(C)CC(=O)N[C@H](C(=O)N[C@H](C(=O)N[C@@H](CC(C)C)[C@@H](O)CC(=O)N[C@@H](C)C(=O)N[C@@H](CC(C)C)[C@@H](O)CC(=O)O)C(C)C)C(C)C [PEPSTATIN] | 0.31 | 0.016

— ChEMBL document CHEMBL1156355, “Phenolic compounds from Miconia myriantha inhibiting Candida aspartic proteases” (J Nat Prod, 2001)
